experiment: log P (Table 1); assay type: physicochemical

Structure (SMILES)	logP	log P
Cc1nc2ccc(N(Cc3ccccc3Cl)C(=O)c3ccccc3)cc2c(=O)n1Cc1ccc(-c2ccccc2-c2nn[nH]n2)cc1 [Example 106]	3.8	–
CCCOC(=O)N(Cc1ccc(N)cc1)c1ccc2nc(CCC)n(Cc3ccc(-c4ccccc4-c4nn[nH]n4)cc3)c(=O)c2c1 [Example 166]	3.9	–
CCCc1nc2ccc(N(Cc3ccccn3)C(=O)OCC)cc2c(=O)n1Cc1ccc(-c2ccccc2-c2nn[nH]n2)cc1 [Example 164]	3.5	–
CCCCCN(C(=O)c1ccccc1)c1ccc2nc(CCC)n(Cc3ccc(-c4ccccc4NS(=O)(=O)C(F)(F)F)cc3)c(=O)c2c1 [Example 104]	5.7	–
CCCc1nc2ccc(N(CCCC(=O)OCC)C(=O)c3ccccc3)cc2c(=O)n1Cc1ccc(-c2ccccc2-c2nnn[nH]2)cc1 [Example 103]	4.1	–
CCCCN(C(=O)c1ccncc1)c1ccc2nc(CCC)n(Cc3ccc(-c4ccccc4-c4nn[nH]n4)cc3)c(=O)c2c1 [Example 68]	4.1	–
CCCc1nc2ccc(N(Cc3ccc(O)cc3)C(=O)c3ccccc3)cc2c(=O)n1Cc1ccc(-c2ccccc2-c2nn[nH]n2)cc1 [Example 179]	3.6	–
CCCc1nc2ccc(N(Cc3ccccn3)C(=O)c3ccco3)cc2c(=O)n1Cc1ccc(-c2ccccc2-c2nn[nH]n2)cc1 [Example 148]	3.2	–
CCc1nc2ccc(N(CC=C(C)C)C(=O)c3ccccc3)cc2c(=O)n1Cc1ccc(-c2ccccc2-c2nn[nH]n2)cc1 [Example 85]	–	4.2
CCCc1nc2ccc(N(Cc3ccccc3)C(=O)c3ccccc3Oc3ccccc3)cc2c(=O)n1Cc1ccc(-c2ccccc2-c2nn[nH]n2)cc1 [Example 178]	4.2	–
CCCc1nc2ccc(N(Cc3ccccc3)C(=O)N(C)CC)cc2c(=O)n1Cc1ccc(-c2ccccc2-c2nn[nH]n2)cc1 [Example 30]	4.3	–
CCCc1nc2ccc(N(Cc3ccccc3)C(=O)c3ccc(O)cc3)cc2c(=O)n1Cc1ccc(-c2ccccc2-c2nn[nH]n2)cc1 [Example 147]	4	–
CCCc1nc2ccc(N(CCC)C(=O)OCC(C)C)cc2c(=O)n1Cc1ccc(-c2ccccc2-c2nnn[nH]2)cc1 [Example 10]	5.1	–
CCCc1nc2ccc(N(Cc3ccccc3)C(=O)c3ccccn3)cc2c(=O)n1Cc1ccc(-c2ccccc2-c2nn[nH]n2)cc1 [Example 136]	3.8	–
CCCCCN(C(=O)c1ccccc1)c1ccc2nc(CCC)n(Cc3ccc(-c4ccccc4-c4nn[nH]n4)cc3)c(=O)c2c1 [Example 33, 2-propyl-6-(N-benzoyl-N-pentyl)-amino-3[(2'-(tetrazol-5-yl)biphen-4-yl)methyl]quinazolin-4(3H)-one]	5.1	–
CCCc1nc2ccc(N(CCC)C(=O)c3ccc(O)cc3)cc2c(=O)n1Cc1ccc(-c2ccccc2-c2nnn[nH]2)cc1 [Example 131]	3.8	–
COCc1nc2ccc(N(C)C(=O)OCC(C)C)cc2c(=O)n1Cc1ccc(-c2ccccc2-c2nn[nH]n2)cc1 [Example 161]	3.7	–
CCCc1nc2ccc(N(Cc3ccccc3)C(=O)c3ccncc3)cc2c(=O)n1Cc1ccc(-c2ccccc2-c2nn[nH]n2)cc1 [Example 139]	3.7	–
CCc1nc2ccc(N(Cc3ccccc3Cl)C(=O)c3ccccc3)cc2c(=O)n1Cc1ccc(-c2ccccc2-c2nn[nH]n2)cc1 [Example 84]	4.4	–
CCCOC(=O)N(Cc1ccccc1)c1ccc2nc(CCC)n(Cc3ccc(-c4ccccc4-c4nnn[nH]4)cc3)c(=O)c2c1 [Example 17]	5	–
CCCCCN(C(=O)c1ccncc1)c1ccc2nc(CCC)n(Cc3ccc(-c4ccccc4-c4nnn[nH]4)cc3)c(=O)c2c1 [Example 35]	4.3	–

Structure (SMILES)	logP	log P
CCCc1nc2ccc(N(Cc3ccccc3)C(=O)OCC)cc2c(=O)n1Cc1ccc(-c2ccccc2-c2nn[nH]n2)cc1 [Example 56]	4.7	–
CCCc1nc2ccc(N(Cc3ccncc3)C(=O)c3ccccc3)cc2c(=O)n1Cc1ccc(-c2ccccc2-c2nn[nH]n2)cc1 [Example 138]	3.4	–
CCc1nc2ccc(N(Cc3ccccc3)C(=O)c3ccccc3)cc2c(=O)n1Cc1ccc(-c2ccccc2-c2nnn[nH]2)cc1 [Example 57]	4.1	–
CCCCCN(C(=O)c1ccc(Cl)cc1)c1ccc2nc(COC)n(Cc3ccc(-c4ccccc4-c4nnn[nH]4)cc3)c(=O)c2c1 [Example 121]	4.6	–
CCCCCN(C(=O)c1ccc(F)cc1)c1ccc2nc(CCC)n(Cc3ccc(-c4ccccc4-c4nn[nH]n4)cc3)c(=O)c2c1 [Example 43]	5.2	–
CCCc1nc2ccc(N(Cc3ccccc3)C(=O)CN3CCN(C(=O)OC(C)(C)C)CC3)cc2c(=O)n1Cc1ccc(-c2ccccc2-c2nnn[nH]2)cc1 [Example 133]	5.3	–
CCCc1nc2ccc(N(CCC)C(=O)c3ccc(F)cc3)cc2c(=O)n1Cc1ccc(-c2ccccc2-c2nn[nH]n2)cc1 [Example 90]	4.3	–
CCCCCN(C(=O)c1ccc(O)cc1)c1ccc2nc(CCC)n(Cc3ccc(-c4ccccc4-c4nnn[nH]4)cc3)c(=O)c2c1 [Example 130]	4.7	–
CCCCN(C(=O)c1ccc(O)cc1)c1ccc2nc(CCC)n(Cc3ccc(-c4ccccc4-c4nn[nH]n4)cc3)c(=O)c2c1 [Example 144]	4.2	–
CCCc1nc2ccc(N(CCC)C(=O)c3ccccc3OC)cc2c(=O)n1Cc1ccc(-c2ccccc2-c2nnn[nH]2)cc1 [Example 127]	4.1	–
CCCc1nc2ccc(N(CC(C)C)C(=O)c3ccccc3)cc2c(=O)n1Cc1ccc(-c2ccccc2-c2nnn[nH]2)cc1 [Example 102]	4.5	–
CCCc1nc2ccc(N(C)C(=O)c3cccs3)cc2c(=O)n1Cc1ccc(-c2ccccc2-c2nnn[nH]2)cc1 [Example 114]	3.4	–
CCCc1nc2ccc(N(CCC)C(=O)c3ccc(OCc4ccccc4)cc3)cc2c(=O)n1Cc1ccc(-c2ccccc2-c2nnn[nH]2)cc1 [Example 129]	5.5	–
CCCc1nc2ccc(N(CC)C(=O)c3cccs3)cc2c(=O)n1Cc1ccc(-c2ccccc2-c2nnn[nH]2)cc1 [Example 124]	3.8	–
CC(C)c1nc2ccc(N(Cc3ccccc3Cl)C(=O)C3CC3)cc2c(=O)n1Cc1ccc(-c2ccccc2-c2nn[nH]n2)cc1 [Example 94]	4.8	–
CCCOC(=O)N(Cc1ccccn1)c1ccc2nc(COC)n(Cc3ccc(-c4ccccc4-c4nn[nH]n4)cc3)c(=O)c2c1 [Example 162]	3.3	–
CCCc1nc2ccc(N(CCCC(=O)O)C(=O)c3ccccc3)cc2c(=O)n1Cc1ccc(-c2ccccc2-c2nnn[nH]2)cc1 [Example 105]	2.3	–
CCCc1nc2ccc(N(Cc3ccncc3)C(=O)OCCOC)cc2c(=O)n1Cc1ccc(-c2ccccc2-c2nn[nH]n2)cc1 [Example 160]	2.7	–
CCCc1nc2ccc(N(Cc3ccccc3)C(=O)c3ccccc3OC)cc2c(=O)n1Cc1ccc(-c2ccccc2-c2nn[nH]n2)cc1 [Example 126]	5	–
Cc1nc2ccc(N(Cc3ccccc3)C(=O)c3ccccc3)cc2c(=O)n1Cc1ccc(-c2ccccc2-c2nnn[nH]2)cc1 [Example 69]	–	3.5
CCCc1nc2ccc(N(Cc3ccc(C(=O)O)cc3)C(=O)c3ccccc3)cc2c(=O)n1Cc1ccc(-c2ccccc2-c2nn[nH]n2)cc1 [Example 182]	2.4	–

Structure (SMILES)	logP	log P
CCCc1nc2ccc(N(CC)C(=O)c3ccco3)cc2c(=O)n1Cc1ccc(-c2ccccc2-c2nnn[nH]2)cc1 [Example 125]	3.5	–
CCCOC(=O)N(Cc1ccncc1)c1ccc2nc(CCC)n(Cc3ccc(-c4ccccc4-c4nn[nH]n4)cc3)c(=O)c2c1 [Example 156]	3.8	–
CCCc1nc2ccc(N(Cc3ccccc3)C(=O)c3ccccn3)cc2c(=O)n1Cc1ccc(-c2ccccc2-c2nn[nH]n2)cc1 [Example 140]	–	3.7
CCCc1nc2ccc(N(Cc3cccnc3)C(=O)c3ccc(O)cc3)cc2c(=O)n1Cc1ccc(-c2ccccc2-c2nn[nH]n2)cc1 [Example 181]	2.8	–
CCCc1nc2ccc(N(CCOC)C(=O)c3ccncc3)cc2c(=O)n1Cc1ccc(-c2ccccc2-c2nnn[nH]2)cc1 [Example 119]	3	–
CCCc1nc2ccc(N(Cc3ccccn3)C(=O)c3ccncc3)cc2c(=O)n1Cc1ccc(-c2ccccc2-c2nn[nH]n2)cc1 [Example 145]	2.7	–
CCc1nc2ccc(N(Cc3ccc(I)cc3)C(=O)c3ccccc3)cc2c(=O)n1Cc1ccc(-c2ccccc2-c2nnn[nH]2)cc1 [Example 112]	5	–
O=C(c1ccccc1)N(Cc1ccccc1)c1ccc2ncn(Cc3ccc(-c4ccccc4-c4nn[nH]n4)cc3)c(=O)c2c1 [Example 95]	3.3	–
CCCCCN(C(=O)c1ccccc1)c1ccc2nc(CCC)n(Cc3ccc(-c4ccccc4S(=O)(=O)NC(=O)C4CC4)cc3)c(=O)c2c1 [Example 73]	5.3	–
CCc1nc2ccc(N(Cc3ccccc3)C(=O)c3ccncc3)cc2c(=O)n1Cc1ccc(-c2ccccc2-c2nn[nH]n2)cc1 [Example 75]	–	3.4
CCCCCN(C(=O)c1ccccc1)c1ccc2nc(CCC)n(Cc3ccc(-c4ccccc4S(=O)(=O)NC(=O)c4ccccc4)cc3)c(=O)c2c1 [Example 74]	5.5	–
CCCCCN(C(=O)c1ccc(OP(=O)(O)O)cc1)c1ccc2nc(CCC)n(Cc3ccc(-c4ccccc4-c4nn[nH]n4)cc3)c(=O)c2c1 [Example 146]	3.4	–
CCCCCN(C(=O)c1ccc(S(C)(=O)=O)cc1)c1ccc2nc(CCC)n(Cc3ccc(-c4ccccc4-c4nn[nH]n4)cc3)c(=O)c2c1 [Example 83]	4.4	–
CCCc1nc2ccc(N(Cc3ccc(F)cc3)C(=O)N(C)C(C)C)cc2c(=O)n1Cc1ccc(-c2ccccc2-c2nn[nH]n2)cc1 [Example 174]	4.8	–
CCCc1nc2ccc(N(Cc3ccccc3)C(=O)Cn3ccnc3)cc2c(=O)n1Cc1ccc(-c2ccccc2-c2nn[nH]n2)cc1 [Example 132]	3.6	–
CC(C)c1nc2ccc(N(Cc3ccccc3)C(=O)c3ccccc3)cc2c(=O)n1Cc1ccc(-c2ccccc2-c2nnn[nH]2)cc1 [Example 70]	–	4.5
CCCCC(=O)N(Cc1ccccc1)c1ccc2nc(CCC)n(Cc3ccc(-c4ccccc4-c4nn[nH]n4)cc3)c(=O)c2c1 [Example 42]	5.4	–
CCc1nc2ccc(N(Cc3ccccc3)C(=O)c3cccs3)cc2c(=O)n1Cc1ccc(-c2ccccc2-c2nn[nH]n2)cc1 [Example 118]	–	4.1
CCCc1nc2ccc(N(Cc3ccccn3)C(=O)N(C)C(C)C)cc2c(=O)n1Cc1ccc(-c2ccccc2-c2nn[nH]n2)cc1 [Example 175]	3.7	–
CCc1nc2ccc(N(Cc3ccccc3)C(=O)c3ccco3)cc2c(=O)n1Cc1ccc(-c2ccccc2-c2nnn[nH]2)cc1 [Example 122]	3.9	–

From US5385894A, “Disubstituted 6-aminoquinazolinones” (Merck & Co., Inc., priority 1994, dated 1995)
